In patent US20160199481A1 (priority 2013, published 2016):
“Also recorded” adds a separate entry of the source.

Legend:
WT HA/WT NA virus [1] = format: cell-based, influenza A
WT HA/WT NA virus [2] = format: cell-based, influenza A; remark: listed apart in the source

oseltamivir
inhibition of agglutination by oseltamivir (WT HA/WT NA virus [1]): uninhibited at all oseltamivir concentrations tested | neutralization of infectivity (percent infectivity remaining) (WT HA/WT NA virus [2]): resistant to neutralization by oseltamivir; also recorded: uninhibited at all concentrations tested
